system: RSV A2; experiment: RSV antiviral cytopathic effect (CPE) assay in HEp2 cells, MTT readout; format: cell-based, respiratory syncytial virus; conditions: HEp2 cells infected with RSV A2, moi ~0.01, 5 days, inhibition of CPE by 50%; read-out: Activity Range (RSV A2 EC50 mean values)
Experimental: RSV Antiviral Assay Protocol
Compounds of the invention were tested for their antiviral activity against respiratory syncytial virus. Cytopathic effect (CPE) assays were performed essentially as described in the literature (see, for example, Watanabe et al, 1994, J. Virological Methods, 48:257). Serial dilutions of the test compounds were made in 96 well plates. HEp2 cells (1.0×10^4 cells/well) were infected with RSV at a low multiplicity of infection (e.g. RSV A2 at an moi of ˜0.01) and added to plates to assess antiviral activity. Uninfected HEp2 cells were used to assess compound cytotoxicity. Assays were incubated for 5 days at 37° C. in a 5% CO2 atmosphere. The extent of CPE was determined via metabolism of the vital dye 3-(4,5-dimethylthiaxol-2-yl)-2,5-diphenyltetrazolium bromide (MTT). MTT (1 mg/ml) was added to each well and plates incubated for 2 hours incubation at 37° C. Wells were aspirated, iso-propanol (200 μL) was added and absorbance values read at 540/650 nm. Compound concentrations that inhibited CPE by 50% (EC50) and developed cytotoxicity (CC50) were calculated using non-linear regression analysis.
In the inventors' experience, replicate EC50 values usually fall within three standard deviations of the mean.

| Molecule | EC50 [nM] |
| --- | --- |
| 11a-(4-fluorophenyl)-1-(furan-2-ylacetyl)-2,3,11,11a-tetrahydro-1H,5H-imidazo[1,2-a]thieno[3′,2′:4,5]pyrrolo[1,2-d]pyrazin-5-one [Compound 22] | > 10000 |

same assay, conditions: human respiratory syncytial virus, HEp-2, 120 h; HEp2 cells infected with RSV A2, moi ~0.01, 5 days, inhibition of CPE by 50%; read-out: Activity Range (RSV A2 EC50 mean values)

| Molecule | EC50 [nM] |
| --- | --- |
| COc1ccc(C23Cn4c(cc5ccsc54)C(=O)N2CCN3C(=O)c2conc2C)cc1 (stereo not drawn) [Compound 1, 11a-(4-methoxyphenyl)-1-[(3-methyl-1,2-oxazol-4-yl)carbonyl]-2,3,11,11a-tetrahydro-1H,5H-imidazo[1,2-a]thieno[3′,2′:4,5]pyrrolo[1,2-d]pyrazin-5-one] | ≤ 49 |
| COc1ccc(C23Cn4c(cc5[nH]c(C)nc54)C(=O)N2CCN3C(=O)c2conc2C)cc1 (stereo not drawn) [Compound 2, 5a-(4-methoxyphenyl)-2-methyl-6-[(3-methyl-1,2-oxazol-4-yl)carbonyl]-5a,6,7,8-tetrahydro-5H-imidazo[1,2-a]imidazo[4′,5′:4,5]pyrrolo[1,2-d]pyrazin-10(1H)-one] | ≤ 49 |
| COc1ccc(C23Cn4c(cc5occc54)C(=O)N2CCN3C(=O)c2conc2C)cc1 (stereo not drawn) [Compound 3, 5a-(4-methoxyphenyl)-6-[(3-methyl-1,2-oxazol-4-yl)carbonyl]-5a,6,7,8-tetrahydro-5H,10H-furo[2′,3′:4,5]pyrrolo[1,2-a]imidazo[1,2-d]pyrazin-10-one] | 50 to 99 |
| COc1ccc(C23Cn4c(cc5ccccc54)C(=O)N2CCN3C(=O)c2conc2C)cc1 (stereo not drawn) [Compound 4, 12a-(4-methoxyphenyl)-1-[(3-methyl-1,2-oxazol-4-yl)carbonyl]-2,3,12,12a-tetrahydro-1H,5H-imidazo[1′,2′:4,5]pyrazino[1,2-a]indol-5-one] | ≤ 49 |
| COc1ccc(C23Cn4c(cc5sccc54)C(=O)N2CCN3C(=O)c2conc2C)cc1 (stereo not drawn) [Compound 5, 5a-(4-methoxyphenyl)-6-[(3-methyl-1,2-oxazol-4-yl)carbonyl]-5a,6,7,8-tetrahydro-5H,10H-imidazo[1,2-a]thieno[2′,3′:4,5]pyrrolo[1,2-d]pyrazin-10-one] | 100 to 499 |
| Cc1nocc1C(=O)N1CCN2C(=O)c3cc4ccsc4n3CC12c1ccc(F)cc1 (stereo not drawn) [Compound 6, 11a-(4-fluorophenyl)-1-[(3-methyl-1,2-oxazol-4-yl)carbonyl]-2,3,11,11a-tetrahydro-1H,5H-imidazo[1,2-a]thieno[3′,2′:4,5]pyrrolo[1,2-d]pyrazin-5-one] | ≤ 49 |
| Cc1ccc(C23Cn4c(cc5ccsc54)C(=O)N2CCN3C(=O)c2conc2C)cc1 (stereo not drawn) [Compound 7, 1-[(3-methyl-1,2-oxazol-4-yl)carbonyl]-11a-(4-methylphenyl)-2,3,11,11 a-tetrahydro-1H,5H-imidazo[1,2-a]thieno[3′,2′:4,5]pyrrolo[1,2-d]pyrazin-5-one] | ≤ 49 |
| COc1ccc(C23Cn4c(cc5cccnc54)C(=O)N2CCN3C(=O)c2conc2C)cc1 (stereo not drawn) [Compound 8, 12a-(4-methoxyphenyl)-1-[(3-methyl-1,2-oxazol-4-yl)carbonyl]-2,3,12,12a-tetrahydro-1H,5H-imidazo[1,2-a]pyrido[3′,2′:4,5]pyrrolo[1,2-d]pyrazin-5-one] | ≤ 49 |
| COc1ccc(C23Cn4c(cc5ncccc54)C(=O)N2CCN3C(=O)c2conc2C)cc1 (stereo not drawn) [Compound 9, 12a-(4-methoxyphenyl)-1-[(3-methyl-1,2-oxazol-4-yl)carbonyl]-2,3,12,12a-tetrahydro-1H,5H-imidazo[1,2-a]pyrido[2′,3′:4,5]pyrrolo[1,2-d]pyrazin-5-one] | 100 to 499 |
| Cc1ccc(C23Cn4c(cc5cccnc54)C(=O)N2CCN3C(=O)c2conc2C)cc1 (stereo not drawn) [Compound 10, 1-[(3-methyl-1,2-oxazol-4-yl)carbonyl]-12a-(4-methylphenyl)-2,3,12,12a-tetrahydro-1H,5H-imidazo[1,2-a]pyrido[3′,2′:4,5]pyrrolo[1,2-d]pyrazin-5-one] | ≤ 49 |
| Cc1nocc1C(=O)N1CCN2C(=O)c3cc4cccnc4n3CC12c1ccc(F)cc1 (stereo not drawn) [Compound 11, 12a-(4-fluorophenyl)-1-[(3-methyl-1,2-oxazol-4-yl)carbonyl]-2,3,12,12a-tetrahydro-1H,5H-imidazo[1,2-a]pyrido[3′,2′:4,5]pyrrolo[1,2-d]pyrazin-5-one] | ≤ 49 |
| Cc1nocc1C(=O)N1CCN2C(=O)c3cc4ncccc4n3CC12c1ccc(F)cc1 (stereo not drawn) [Compound 12, 12a-(4-fluorophenyl)-1-[(3-methyl-1,2-oxazol-4-yl)carbonyl]-2,3,12,12a-tetrahydro-1H,5H-imidazo[1,2-a]pyrido[2′,3′:4,5]pyrrolo[1,2-d]pyrazin-5-one] | 100 to 499 |
| Cc1ccc(C23Cn4c(cc5ccsc54)C(=O)N2CCN3C(=O)c2conc2C)cn1 (stereo not drawn) [Compound 13, 1-[(3-methyl-1,2-oxazol-4-yl)carbonyl]-11a-(6-methylpyridin-3-yl)-2,3,11,11a-tetrahydro-1H,5H-imidazo[1,2-a]thieno[3′,2′:4,5]pyrrolo[1,2-d]pyrazin-5-one] | ≤ 49 |
| O=C1c2cc3ccsc3n2CC2(c3ccc(F)cc3)N1CCN2C(=O)C1CCCCC1 (stereo not drawn) [Compound 14, 1-(cyclohexylcarbonyl)-11a-(4-fluorophenyl)-2,3,11,11a-tetrahydro-1H,5H-imidazo[1,2-a]thieno[3′,2′:4,5]pyrrolo[1,2-d]pyrazin-5-one] | > 10000 |
| O=C(c1ccco1)N1CCN2C(=O)c3cc4ccsc4n3CC12c1ccc(F)cc1 (stereo not drawn) [Compound 15, 11a-(4-fluorophenyl)-1-(furan-2-ylcarbonyl)-2,3,11,11a-tetrahydro-1H,5H-imidazo[1,2-a]thieno[3′,2′:4,5]pyrrolo[1,2-d]pyrazin-5-one] | > 10000 |
| O=C1c2cc3ccsc3n2CC2(c3ccc(F)cc3)N1CCN2C(=O)C1CC1 (stereo not drawn) [Compound 16, 1-(cyclopropylcarbonyl)-11a-(4-fluorophenyl)-2,3,11,11a-tetrahydro-1H,5H-imidazo[1,2-a]thieno[3′,2′:4,5]pyrrolo[1,2-d]pyrazin-5-one] | > 10000 |
| CC(C)C(=O)N1CCN2C(=O)c3cc4ccsc4n3CC21c1ccc(F)cc1 (stereo not drawn) [Compound 17, 11a-(4-fluorophenyl)-1-(2-methylpropanoyl)-2,3,11,11a-tetrahydro-1H,5H-imidazo[1,2-a]thieno[3′,2′:4,5]pyrrolo[1,2-d]pyrazin-5-one] | > 10000 |
| Cc1cc(C(=O)N2CCN3C(=O)c4cc5ccsc5n4CC23c2ccc(F)cc2)no1 (stereo not drawn) [Compound 18, 11a-(4-fluorophenyl)-1-[(5-methyl-1,2-oxazol-3-yl)carbonyl]-2,3,11,11a-tetrahydro-1H,5H-imidazo[1,2-a]thieno[3′,2′:4,5]pyrrolo[1,2-d]pyrazin-5-one] | > 10000 |
| O=C(CC1CCCCC1)N1CCN2C(=O)c3cc4ccsc4n3CC12c1ccc(F)cc1 (stereo not drawn) [Compound 19, l-(cyclohexylacetyl)-11a-(4-fluorophenyl)-2,3,11,11a-tetrahydro-1H,5H-imidazo[1,2-a]thieno[3′,2′:4,5]pyrrolo[1,2-d]pyrazin-5-one] | > 10000 |
| Cn1nc(C(C)(C)C)cc1C(=O)N1CCN2C(=O)c3cc4ccsc4n3CC12c1ccc(F)cc1 (stereo not drawn) [Compound 20, 1-[(3-tert-butyl-1-methyl-1H-pyrazol-5-yl)carbonyl]-11a-(4-fluorophenyl)-2,3,11,11a-tetrahydro-1H,5H-imidazo[1,2-a]thieno[3′,2′:4,5]pyrrolo[1,2-d]pyrazin-5-one] | > 10000 |
| Cc1ocnc1C(=O)N1CCN2C(=O)c3cc4ccsc4n3CC12c1ccc(F)cc1 (stereo not drawn) [Compound 21, 11a-(4-fluorophenyl)-1-[(5-methyl-1,3-oxazol-4-yl)carbonyl]-2,3,11,11a-tetrahydro-1H,5H-imidazo[1,2-a]thieno[3′,2′:4,5]pyrrolo[1,2-d]pyrazin-5-one] | 100 to 499 |
| O=C(NCc1ccccc1)N1CCN2C(=O)c3cc4ccsc4n3CC12c1ccc(F)cc1 (stereo not drawn) [Compound 23, N-benzyl-11a-(4-fluorophenyl)-5-oxo-2,3,11,11a-tetrahydro-1H,5H-imidazo[1,2-a]thieno[3′,2′:4,5]pyrrolo[1,2-d]pyrazine-1-carboxamide] | > 10000 |
| O=C(NC1CCCCC1)N1CCN2C(=O)c3cc4ccsc4n3CC12c1ccc(F)cc1 (stereo not drawn) [Compound 24, N-cyclohexyl-11a-(4-fluorophenyl)-5-oxo-2,3,11,11a-tetrahydro-1H,5H-imidazo[1,2-a]thieno[3′,2′:4,5]pyrrolo[1,2-d]pyrazine-1-carboxamide] | > 10000 |
| O=C1c2cc3ccsc3n2CC2(c3ccc(F)cc3)N1CCN2S(=O)(=O)c1ccccc1 (stereo not drawn) [Compound 25, 11a-(4-fluorophenyl)-1-(phenylsulfonyl)-2,3,11,11a-tetrahydro-1H,5H-imidazo[1,2-a]thieno[3′,2′:4,5]pyrrolo[1,2-d]pyrazin-5-one] | > 10000 |
| O=C1c2cc3ccsc3n2CC2(c3ccc(F)cc3)N1CCN2S(=O)(=O)Cc1ccccc1 (stereo not drawn) [Compound 26, 1-(benzylsulfonyl)-11a-(4-fluorophenyl)-2,3,11,11a-tetrahydro-1H,5H-imidazo[1,2-a]thieno[3′,2′:4,5]pyrrolo[1,2-d]pyrazin-5-one] | > 10000 |
| O=C1c2cc3ccsc3n2CC2(c3ccc(F)cc3)N1CCN2S(=O)(=O)c1ccc([N+](=O)[O-])cc1 (stereo not drawn) [Compound 27, 11a-(4-fluorophenyl)-1-[(4-nitrophenyl)sulfonyl]-2,3,11,11a-tetrahydro-1H,5H-imidazo[1,2-a]thieno[3′,2′:4,5]pyrrolo[1,2-d]pyrazin-5-one] | 500 to 10000 |
